How the values were obtained:
[1] = test system: diploidem Roggen Voskhod 2; test: Field test of gametocidal activity, diploid rye Voskhod 2; type: in vivo; settings: period V, 1% aqueous emulsion, 10 kg/ha in 1000 l water
Text: Die gametozide Aktivität der erfindungsgemäßen Sterilisationsmittel war in Feldversuchen in verschiedenen bodenklimatischen Zonen mit Teilstücken von 10 m^2 Größe in dreibis viermaliger Wiederholung festgestellt. Jedes Sterilisationsmittel wurde mindenstens 5 Jahre lang geprüft.
Die Entwicklung der Perioden der Organogenese wird zytologisch überwacht. Die Behandlung von Pflanzen mit dem Sterilisationsmittel erfolgt am Anfang der fünften Periode der Organogenese nach Kupermann.
Mit dem Ährenschieben verwirklicht man die Isolierung von Hauptähren und anderen Stockwerken in Pergametbeuteln. Bei Weizen und Tritikale werden Einzelisolatoren benutzt. Bei Roggen schließt man je 1 Ähre von […] verschiedenen nebeneinander befindlichen Pflanzen unter einen gemeinsamen Isolator ein. Bei Hirse wird jede Rispe getrennt isoliert. Der Sterilitätsprozentsatz (X) für Weizen, Roggen, Tritikale und Hirse wird nach der Formel [formula] ermittelt.
Die Kornzahl in nicht isolierten Ähren von Kontrollpflanzen wird bedingt für 100 % Ansetzen bei freier Bestäubung angenommen.
Um zuverlässige Angaben zu erhalten, verwendet man 20 bis 25 Isolatoren je Wiederholung für Weizen und Tritikale, 10 bis 15 Isolatoren jeder Wiederholung für Roggen und Hirse.
Pflanzen von diploidem Roggen Voskhod 2 werden in der V. Periode der Organogenese mit einer 1%igen wäßrigen Emulsion von 1,1,3-Tribrompropan, 1,1,3-Tribrom-4-chlorbutan bzw. 1,1,2,3-Tetrabrompropan behandelt. Die Emulsion enthält 0,5 Masse% C12-C14-Kalziumalkylbenzolsulfonat und 0,01 Masse% Dimethylformamid. Der Verbrauch an Präparat beträgt 10 kg/ha bei 1000 1 Wasserdurchsatz. Die Prüfergebnisse sind in der Tabelle 14 angegeben. Die gleichen Ergebnisse sind bei der Behandlung von diploidem Roggen Voskhod 2 in der VI. Periode der Organogenese erhalten..

[2] = test system: Winterweizens Sorte Mironowskaya 808; test: Field test of gametocidal activity (anther sterilisation), winter wheat Mironowskaya 808; type: in vivo, Weizen; settings: read-out: Prozentsatz der Sterilität %
[3] = workplace air limit; cited from earlier work

Structure (SMILES)	Kornzahl der Ähre bei freier Bestäubung [1]	Kornzahl der Ähre unter Isolator [1]	Prozentsatz der Sterilität [1]	Prozentsatz des Ansetzens von Samen bei freier Bestäubung ([1]; control = 100)	pest or weed control at 1 %, 20000 g/ha [2] [%]	maximale Arbeitsplatzkonzentration (MAK-Wert) [3] [mg/m^3]
BrCCC(Br)Br [Beispiel 1, 1,1,3-Tribrompropan]	48,6	0,9	98,2%	89,0%	98	
CC(Br)CBr (stereo not drawn) [Beispiel 5, 1,2-Dibrompropan]						5
